Reference: patent US12448372B2, “Class of triaromatic compounds targeting bifunctional phosphorylation site of STAT3 and applications thereof” (SHANGHAI YUYAO BIOTECH LTD., priority 2019, dated 2025)
Like-named read-outs stand apart in the source and are kept apart here.

How the values were obtained:
[1] = test system: HCC827; experiment: Cell proliferation by MTS method, HCC827; type: cell-based; conditions: Homo sapiens
Summary of the method: (§1)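 Cells seeded at 1-20×10^3 cells/well and allowed to adhere, then exposed to graded compound concentrations for 24-96 h. MTS added and incubated at 37° C in the dark, absorbance read at 490 nm. Three repeats; IC50 from concentration-response.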

[2] = test system: BGC823; experiment: Cell proliferation by MTS method, BGC823; type: cell-based; conditions: Homo sapiens, BGC-823, gastric Cancer
Excerpt: (§2) (2) Detection of Cell Proliferation by MTS Method
(§3) The MTS assay is a method for indirectly determining the number of living cells via colourimetric method. MTS is a newly synthesised tetrazole compound that reflects cell viability, which can be reduced by succinate dehydrogenase in the mitochondria of living cells to an orange-coloured formazan with an absorbance of the reduced product measured at 490 nm being in proportion to the number of living cells, thus reflecting the cell viability. This assay can be used to evaluate the effect of the compound on the proliferation of pancreatic cancer cells, thereby determining the inhibitory effect of the compound on the proliferation of pancreatic cancer cells and to calculate the IC^50. Each cells were inoculated uniformly into a 96-well plate at a density of 1-20×10^3 cells/well, 100 μL per well, and placed in a constant temperature incubator until the cells adhered to the wall. […] Under light-proof conditions, MTS was added and well mixed, the mixture was placed in a constant temperature incubator at 37° C., and the light absorption value were measured using an enzyme marker at 490 nm and the experiment was repeated for three times, IC50 was calculated with GraphPad5 Prism software.

[3] = test system: PC-9; experiment: Cell proliferation by MTS method, PC-9; type: cell-based; conditions: Homo sapiens, Lung Cancer
Excerpt: as §2, §3

[4] = test system: A549; experiment: Cell proliferation by MTS method, A549; type: cell-based; conditions: Homo sapiens, Lung Cancer
Excerpt: as §2, §3

[5] = test system: mouse pancreatic cancer cells Pan02-Luci; experiment: Pancreatic cancer liver metastasis model, Pan02-Luci in C57BL/6 mice; type: in vivo
Excerpt: (1) Animal Experiment on Pancreatic Cancer Liver Metastasis
Pancreatic cancer is a malignant tumor of the gastrointestinal tract, with rapidly progressing condition, high degree of progression, and very limited clinical treatments, and metastasis is very likely to occur in the terminal stage, among which liver metastasis is the most common, and the occurrence of liver metastasis is also an important manifestation of the seriousness of the disease. In the present invention, by injecting pancreatic cancer cells into the spleen, the tumour cells will directed metastasize to the liver, thereby simulating the occurrence and metastasis process of pancreatic cancer liver metastasis. […] Fluorescence detection of mice was performed using the Small Animal In vivo Imaging Instrument (IVIS), according to the obtained fluorescence values, the mice were divided into control group, WB737 5 mg/kg/d low dose group, 10 mg/kg/d medium dose group and 20 mg/kg/d high dose group, and IACS-010759-10 mg/kg positive compound group, and the mean fluorescence values of each group were ensured to be consistent. […] Metastasiss were recorded using small animal in vivo imaging instrument (IVIS) during the experiment, and body weight of the mice was measured every 3-4 days. […]

[6] = test system: STAT3-Tyr705 and Ser727 in pancreatic cancer cells; experiment: Western blot of STAT3 phosphorylation in pancreatic cancer cells; type: cell-based; conditions: 12-24 h, FIG. 1A
Excerpt: Finally, the expression levels of protein were detected by Odyssey scanner.

[7] = test system: MKN45; experiment: Cell proliferation by MTS method, MKN45; type: cell-based; conditions: Homo sapiens, MKN-45
Summary of the method: as §1

[8] = biological target: STAT3 protein (Homo sapiens, UniProt P40763); experiment: Binding activity to STAT3 protein by microscale thermophoresis (MST); conditions: purified STAT3 recombinant protein
Summary of the method: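 His-tag-labelled purified recombinant STAT3 (final 100–200 nM) was mixed with compounds at 16 concentrations in MST buffer and incubated 30 min protected from light. Thermophoresis read in capillaries gave KD values.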

[9] = test system: HCCC9810; experiment: Cell proliferation by MTS method, HCCC9810; type: cell-based; conditions: Liver Cancer
Excerpt: as §2, §3

[10] = test system: CFPAC-1; experiment: Cell proliferation by MTS method, CFPAC-1; type: cell-based; conditions: Homo sapiens, Pancreatic Cancer
Excerpt: as §2, §3

[11] = test system: BXPC3; experiment: Cell proliferation by MTS method, BXPC3; type: cell-based; conditions: Homo sapiens, BXPC-3, Pancreatic Cancer
Excerpt: as §2, §3

[12] = test system: SK-hep1; experiment: Cell proliferation by MTS method, SK-hep1; type: cell-based; conditions: Homo sapiens, Liver Cancer
Excerpt: as §2, §3

[13] = test system: MIAPACA-2; experiment: Cell proliferation by MTS method, MIAPACA-2; type: cell-based; conditions: Homo sapiens, MIA PaCa-2, Pancreatic Cancer
Excerpt: as §2, §3

[14] = test system: PANC-1; experiment: Cell proliferation by MTS method, PANC-1; type: cell-based; conditions: Homo sapiens, Pancreatic Cancer
Excerpt: as §2, §3

[15] = Acute toxicological experiments, survival of normal mice; conditions: dose of 80 mg/kg, FIG. 5E
[16] = test system: SW1990; experiment: Cell proliferation by MTS method, SW1990; type: cell-based; conditions: Homo sapiens, Pancreatic Cancer
Excerpt: as §2, §3

[17] = test system: HCT-116; experiment: Cell proliferation by MTS method, HCT-116; type: cell-based; conditions: Homo sapiens, Colon Cancer
Excerpt: as §2, §3

STAT3 protein, sequence (P40763 whole entry): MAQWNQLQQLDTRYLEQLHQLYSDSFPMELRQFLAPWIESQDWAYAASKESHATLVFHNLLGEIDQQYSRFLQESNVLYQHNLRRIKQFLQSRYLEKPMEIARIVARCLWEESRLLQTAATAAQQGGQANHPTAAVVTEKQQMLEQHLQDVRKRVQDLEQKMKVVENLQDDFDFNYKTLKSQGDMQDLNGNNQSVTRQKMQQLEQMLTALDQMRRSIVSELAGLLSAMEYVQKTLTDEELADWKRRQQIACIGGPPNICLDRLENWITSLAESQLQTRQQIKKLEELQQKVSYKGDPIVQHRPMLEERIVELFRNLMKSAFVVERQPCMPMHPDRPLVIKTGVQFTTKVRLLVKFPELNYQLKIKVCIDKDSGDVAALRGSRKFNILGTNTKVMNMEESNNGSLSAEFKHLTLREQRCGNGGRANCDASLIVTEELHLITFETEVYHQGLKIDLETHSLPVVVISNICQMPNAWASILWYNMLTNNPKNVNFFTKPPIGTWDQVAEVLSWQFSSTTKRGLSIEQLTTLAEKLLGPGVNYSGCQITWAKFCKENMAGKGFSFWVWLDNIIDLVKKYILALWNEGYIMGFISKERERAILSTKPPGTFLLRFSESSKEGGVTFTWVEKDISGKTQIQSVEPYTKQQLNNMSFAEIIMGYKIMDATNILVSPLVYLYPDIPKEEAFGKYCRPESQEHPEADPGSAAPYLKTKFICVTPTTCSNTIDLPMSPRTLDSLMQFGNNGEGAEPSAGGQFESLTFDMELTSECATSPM

Q: Which results are given for `Cn1c(C(=O)N2CCN(Cc3ccc(OCC(F)(F)F)cc3)CC2)cc2ccc(Oc3cnc(-c4nc(-c5ccc(C(F)(F)F)cc5)no4)cn3)cc21` [Example 6, (6-((5-(3-(4-(trifluoromethyl)phenyl)-1,2,4-oxadiazol-5-yl)pyrazin-2-yl)oxy)1-methyl-1H-indol-2-yl)(4-(4-(2,2,2-trifluoroethoxy)benzyl)piperazin-1-yl)methanone]?
A: IC50 ([1]; Lung Cancer, HCC827, read-out: IC50): 0.5 nM; IC50 ([1]; Table 1, HCC827, read-out: Tumour cell proliferative activity/IC50(nM) Lung Cancer HCC827): < 10 nM; IC50 [2]: 6.1 ± 0.9 nM; IC50 [3]: 21.3 nM; IC50 [4]: 11.9 nM; liver metastasis of tumours ([5]; Pan02-Luci injected into spleen, C57BL/6 mice, 5, 10, 20 mg/kg/d by gavage, FIG. 4A/4B): dose-dependently inhibits liver metastasis of tumours; survival of mice ([5]; pancreatic tumour liver metastasis model (Pan02), 5, 10, 20 mg/kg by gavage once a day, FIG. 4C): significantly prolongs the survival of mice; concentration that completely inhibits the expression of STAT3-Tyr705 and Ser727 [6]: lower than 50 nM; IC50 ([7]; Table 1, MKN45, read-out: Tumour cell proliferative activity/IC50(nM) gastric Cancer MKN45): < 10 nM; IC50 ([7]; gastric Cancer, MKN45, read-out: IC50): 1.6 nM; Kd [8]: < 10 nM; IC50 [9]: 73.3 nM; IC50 [10]: 3.1 nM; IC50 [11]: 7.6 nM; IC50 [12]: 18.6 nM; IC50 [13]: 8.8 nM; IC50 [14]: 8.1 nM; mortality of normal mice [15]: no mice died; IC50 [16]: 1.3 nM; IC50 [17]: 11.3 nM
